Reference: ChEMBL document CHEMBL1129033, “Synthesis and antibacterial activity of U-100592 and U-100766, two oxazolidinone antibacterial agents for the potential treatment of multidrug-resistant gram-positive bacterial infections” (1996)
Converted amounts (≈) assume the structure as drawn.

How the values were obtained:
Staphylococcus aureus [1] = assay: In vitro antibacterial activity against Staphylococcus aures strain ATCC 29213; format: functional
Pseudomonas aeruginosa = assay: In vitro antibacterial activity against Pseudomonas aeruginosa strain ATCC 27853; format: functional
Staphylococcus aureus [2] = assay: In vitro antibacterial activity against Staphylococcus aures strain UC 9213; format: functional
Enterococcus faecium = assay: In vitro antibacterial activity against Enterococcus faecium strain UC12712; format: functional
Bacteroides fragilis = assay: In vitro antibacterial activity against Bacteroides fragilis strain ATCC 25285; format: functional
Mus musculus [3] = assay: In vivo antibacterial activity against Staphylococcus aures strain UC 9213 administered perorally in mice; format: functional; details: po
Mus musculus [4] = assay: In vivo antibacterial activity against Enterococcus faecium strain UC 15090 administered perorally in mice; format: functional; details: po
Streptococcus pyogenes = assay: In vitro antibacterial activity against Streptococcus pyogenes strain UC 152; format: functional
Klebsiella pneumoniae = assay: In vitro antibacterial activity against Klebsiella pneumoniae strain UC 12081; format: functional
Staphylococcus aureus [5] = assay: In vitro antibacterial activity against Staphylococcus aures strain UC12673; format: functional
Mus musculus [6] = assay: In vivo antibacterial activity against Enterococcus faecalis strain UC 12379 administered perorally in mice; format: functional; details: po
[7] = system: Staphylococcus epidermidis; assay: In vitro antibacterial activity against Staphylococcus epidermis strain UC 30031; format: functional
Escherichia coli = assay: In vitro antibacterial activity against Escherichia coli strain ATCC 25922; format: functional
Clostridium perfringens = assay: In vitro antibacterial activity against Clostridium perfringens strain ATCC 13124; format: functional
Mus musculus [8] = assay: (§1) In vivo antibacterial activity against Staphylococcus aures strain UC 9213 administered subcutaneously in mice; format: functional; details: sc
[9] = system: Mycobacterium tuberculosis; assay: In vitro antibacterial activity against Mycobacterium tuberculosis strain H37Rv; format: functional
Streptococcus pneumoniae = assay: In vitro antibacterial activity against Streptococcus pneumoniae strain UC 9912; format: functional
Enterococcus faecalis = assay: In vitro antibacterial activity against Enterococcus faecalis strain ATCC 29212; format: functional
Mus musculus [10] = assay: as §1; format: functional; details: sc; remark: listed apart in the source
[11] = system: Mycobacterium tuberculosis; assay: In vitro antibacterial activity against Mycobacterium tuberculosis strain H37Rv; f means comparative control value for isoniazid was 0.20 ug/mL.; format: functional, organism-based
Mus musculus [12] = assay: In vivo antibacterial activity against Enterococcus faecium strain UC 15090 administered subcutaneously in mice; format: functional; details: sc
Mus musculus [13] = assay: In vivo antibacterial activity against Enterococcus faecalis strain UC 12379 administered subcutaneously in mice; format: functional; details: sc

| Structure (SMILES) | MIC (Pseudomonas aeruginosa) [µg/mL] | MIC (Enterococcus faecium) [µg/mL] | MIC (Bacteroides fragilis) [µg/mL] | ED50 (Mus musculus [3]) [mg/kg] | ED50 (Mus musculus [4]) [mg/kg] | MIC (Streptococcus pyogenes) [µg/mL] | MIC (Klebsiella pneumoniae) [µg/mL] | ED50 (Mus musculus [6]) [mg/kg] | MIC [7] [µg/mL] | MIC (Escherichia coli) [µg/mL] | MIC (Clostridium perfringens) [µg/mL] | ED50 (Mus musculus [8]) [mg/kg] | MIC [9] [µg/mL] | MIC (Streptococcus pneumoniae) [µg/mL] | also measured |
| --- | --- | --- | --- | --- | --- | --- | --- | --- | --- | --- | --- | --- | --- | --- | --- |
| CC(=O)NC[C@H]1CN(c2ccc(N3CCN(C(=O)CO)CC3)c(F)c2)C(=O)O1 [EPEREZOLID] | > 64 | 1 (≈ 2.54 µM) | 1 (≈ 2.54 µM) | 1.9 | 12.5 | 1 (≈ 2.54 µM) | > 64 | 1.3 | 1 (≈ 2.54 µM) | > 64 | 1 (≈ 2.54 µM) | 0.9 | < 0.125 | 0.5 (≈ 1.27 µM) | MIC (Staphylococcus aureus [1]): 4 µg/mL (≈ 10.1 µM); MIC (Staphylococcus aureus [2]): 4 µg/mL (≈ 10.1 µM); MIC (Staphylococcus aureus [5]): 2 µg/mL (≈ 5.07 µM); MIC (Enterococcus faecalis): 2 µg/mL (≈ 5.07 µM) |
| CC(=O)NC[C@H]1CN(c2ccc(N3CCOCC3)c(F)c2)C(=O)O1 [LINEZOLID] | > 64 | 2 (≈ 5.93 µM) | 1 (≈ 2.96 µM) | 5.6 | 24 | 2 (≈ 5.93 µM) | > 64 | 10 | 1 (≈ 2.96 µM) | > 64 | 1 (≈ 2.96 µM) | 2 | < 0.125 |  |  |
| CN[C@H](CC(C)C)C(=O)N[C@H]1C(=O)N[C@@H](CC(N)=O)C(=O)N[C@H]2C(=O)N[C@H]3C(=O)N[C@H](C(=O)N[C@H](C(=O)O)c4cc(O)cc(O)c4-c4cc3ccc4O)[C@H](O)c3ccc(c(Cl)c3)Oc3cc2cc(c3O[C@@H]2O[C@H](CO)[C@@H](O)[C@H](O)[C@H]2O[C@H]2C[C@](C)(N)[C@H](O)[C@H](C)O2)Oc2ccc(cc2Cl)[C@H]1O [VANCOMYCIN] | > 64 |  | > 16 |  |  |  | > 64 |  |  | > 64 | 1 (≈ 0.69 µM) | 3.9 |  | 0.5 (≈ 0.345 µM) | ED50 (Mus musculus [10]): 3.9 mg/kg; MIC [11]: Comparitive control valie for isonazid was 0.20 ug/ml; ED50 (Mus musculus [12]): > 100 mg/kg; ED50 (Mus musculus [13]): < 0.6 mg/kg |
